The values that follow come from publication PMC7180948, “New Insights into 4-Anilinoquinazolines as Inhibitors of Cardiac Troponin I–Interacting Kinase (TNNi3K)” (Molecules, 2020).

Holding throughout (assay): biochemical
Holding throughout (design): KINOMEscan competition binding panel (Eurofins DiscoverX), single concentration, percent inhibition
What all share (conditions): read-out: 15 at 1 µM % inhibition

Assay [1] has as its target MAP4K3 (Homo sapiens, UniProt Q8IVH8). The procedure, abridged: (§1)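 Values come from single-concentration (1 µM) profiling in the Eurofins DiscoverX KINOMEscan competition-binding platform, which covers over 400 kinases.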
Assay [2] has as its target SRPK2 (Homo sapiens, UniProt P78362). The procedure, abridged: as §1
The target of assay [3] is T1, ARK5 (Homo sapiens, UniProt O60285).
T1 construct: gene NUAK1
Summed up:
as §1

For assay [4], the target named is T2, LOK (Homo sapiens, UniProt O94804).
T2 construct: gene STK10
The procedure, abridged:
as §1

In assay [5] the target is T3, PIP5K2C (Homo sapiens, UniProt Q8TBX8).
T3 construct: gene PIP4K2C
Summed up: as §1

The target of assay [6] is TIE1 (Homo sapiens, UniProt P35590). Summed up: as §1
Assay [7] deals with T4, SNARK (Homo sapiens, UniProt Q9H093).
T4 construct: gene NUAK2
The procedure, abridged: as §1

Assay [8] addresses T5, YANK3 (Homo sapiens, UniProt Q86UX6).
T5 construct: gene STK32C
Summed up:
as §1

The target in assay [9] is TNK2 (Homo sapiens, UniProt Q07912). The procedure, abridged:
as §1

For assay [10], the target named is EPHB6 (Homo sapiens, UniProt O15197). Summed up: as §1
Assay [11] concerns the target AURKB (Homo sapiens, UniProt Q96GD4). The procedure, abridged: as §1
The target in assay [12] is BMPR1B (Homo sapiens, UniProt O00238). The procedure, abridged:
as §1

The target of assay [13] is T6, MINK (Homo sapiens, UniProt Q8N4C8).
T6 construct: gene MINK1
The procedure, abridged:
as §1

Assay [14] concerns the target STK16 (Homo sapiens, UniProt O75716). Summed up: as §1
Assay [15] addresses BRAF(V600E) (Homo sapiens, UniProt P15056, V600E). The procedure, abridged:
as §1

Assay [16] addresses KIT(D816V) (Homo sapiens, UniProt P10721, D816V). Summed up: as §1
Assay [17] concerns the target T7, p38-alpha (Homo sapiens, UniProt Q16539).
T7 construct: gene MAPK14
Summed up:
as §1

Assay [18] has as its target STK39 (Homo sapiens, UniProt Q9UEW8). Summed up: as §1
Assay [19] concerns the target T8, RSK4(Kin.Dom.2-C-terminal) (Homo sapiens, UniProt Q9UK32).
T8 construct: gene RPS6KA6; Kin.Dom.2-C-terminal
Summed up:
as §1

Assay [20] concerns the target T9, JNK1 (Homo sapiens, UniProt P45983).
T9 construct: gene MAPK8
The procedure, abridged:
as §1

The target of assay [21] is TBK1 (Homo sapiens, UniProt Q9UHD2). Summed up:
as §1

Assay [22] deals with PIK3CA(E545A) (Homo sapiens, UniProt P42336, E545A). Summed up:
as §1

The target in assay [23] is PRKG1 (Homo sapiens, UniProt Q13976). Summed up: as §1
Assay [24] concerns the target MAST1 (Homo sapiens, UniProt Q9Y2H9). The procedure, abridged:
as §1

PRKG1, sequence (Q13976 whole entry): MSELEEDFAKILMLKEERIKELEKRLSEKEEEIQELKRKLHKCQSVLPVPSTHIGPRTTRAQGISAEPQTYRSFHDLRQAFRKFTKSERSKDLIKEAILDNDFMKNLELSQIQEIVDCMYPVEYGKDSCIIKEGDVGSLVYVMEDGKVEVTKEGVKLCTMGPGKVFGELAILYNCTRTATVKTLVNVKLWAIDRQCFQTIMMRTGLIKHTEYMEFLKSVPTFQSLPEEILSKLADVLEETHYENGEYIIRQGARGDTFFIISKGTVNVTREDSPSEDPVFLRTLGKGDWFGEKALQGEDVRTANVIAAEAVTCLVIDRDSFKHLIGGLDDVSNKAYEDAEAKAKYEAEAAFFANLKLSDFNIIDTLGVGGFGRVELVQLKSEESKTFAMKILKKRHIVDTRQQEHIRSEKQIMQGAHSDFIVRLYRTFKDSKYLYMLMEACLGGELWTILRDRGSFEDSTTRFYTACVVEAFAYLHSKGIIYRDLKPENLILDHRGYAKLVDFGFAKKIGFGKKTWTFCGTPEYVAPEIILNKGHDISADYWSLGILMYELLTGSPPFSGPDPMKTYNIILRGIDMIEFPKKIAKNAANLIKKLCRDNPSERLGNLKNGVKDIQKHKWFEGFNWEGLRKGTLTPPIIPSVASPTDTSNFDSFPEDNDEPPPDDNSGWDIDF
T1 sequence (O60285 whole entry): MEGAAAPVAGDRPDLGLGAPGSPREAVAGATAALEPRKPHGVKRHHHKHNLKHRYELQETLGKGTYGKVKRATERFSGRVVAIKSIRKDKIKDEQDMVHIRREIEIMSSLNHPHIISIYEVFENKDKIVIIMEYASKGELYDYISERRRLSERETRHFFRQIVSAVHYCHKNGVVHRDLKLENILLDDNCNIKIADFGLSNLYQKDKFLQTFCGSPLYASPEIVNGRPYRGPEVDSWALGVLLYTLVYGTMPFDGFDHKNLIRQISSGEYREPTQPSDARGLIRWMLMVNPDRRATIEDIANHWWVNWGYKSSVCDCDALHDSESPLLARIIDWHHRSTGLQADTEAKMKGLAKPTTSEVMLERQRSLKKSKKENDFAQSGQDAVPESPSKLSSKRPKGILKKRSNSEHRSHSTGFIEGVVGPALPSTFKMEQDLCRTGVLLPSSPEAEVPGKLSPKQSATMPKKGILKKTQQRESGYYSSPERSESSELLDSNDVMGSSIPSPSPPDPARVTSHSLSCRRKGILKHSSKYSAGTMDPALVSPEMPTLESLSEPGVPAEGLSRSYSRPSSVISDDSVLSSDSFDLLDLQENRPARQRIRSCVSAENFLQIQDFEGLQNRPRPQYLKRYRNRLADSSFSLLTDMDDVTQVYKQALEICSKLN
KIT(D816V), sequence (P10721 whole entry D816V): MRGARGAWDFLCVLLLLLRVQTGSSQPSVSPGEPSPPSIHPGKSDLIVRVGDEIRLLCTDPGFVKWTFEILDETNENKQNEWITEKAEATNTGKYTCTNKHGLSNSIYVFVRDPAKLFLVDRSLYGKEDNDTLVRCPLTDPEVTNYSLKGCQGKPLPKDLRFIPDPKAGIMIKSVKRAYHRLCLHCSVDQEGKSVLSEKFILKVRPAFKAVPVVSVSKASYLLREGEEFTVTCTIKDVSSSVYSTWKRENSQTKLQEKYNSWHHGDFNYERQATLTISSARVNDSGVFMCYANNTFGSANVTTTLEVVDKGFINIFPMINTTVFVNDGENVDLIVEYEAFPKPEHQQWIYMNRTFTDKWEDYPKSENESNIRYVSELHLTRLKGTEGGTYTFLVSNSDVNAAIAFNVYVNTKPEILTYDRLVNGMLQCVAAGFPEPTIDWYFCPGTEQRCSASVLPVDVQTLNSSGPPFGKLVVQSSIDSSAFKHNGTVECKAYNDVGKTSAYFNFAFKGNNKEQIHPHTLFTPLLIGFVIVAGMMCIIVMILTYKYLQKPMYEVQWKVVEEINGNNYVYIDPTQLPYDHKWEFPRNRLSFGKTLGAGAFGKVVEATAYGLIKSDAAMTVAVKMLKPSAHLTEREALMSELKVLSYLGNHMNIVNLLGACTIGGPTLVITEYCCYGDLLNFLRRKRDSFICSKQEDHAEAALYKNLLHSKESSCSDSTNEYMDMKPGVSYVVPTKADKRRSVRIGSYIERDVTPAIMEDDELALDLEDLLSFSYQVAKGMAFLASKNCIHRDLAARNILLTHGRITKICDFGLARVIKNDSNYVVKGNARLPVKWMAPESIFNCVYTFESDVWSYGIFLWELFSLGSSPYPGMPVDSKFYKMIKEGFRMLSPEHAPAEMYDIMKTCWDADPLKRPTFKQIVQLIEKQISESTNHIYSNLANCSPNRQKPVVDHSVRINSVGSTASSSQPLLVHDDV
BMPR1B, sequence (O00238 whole entry): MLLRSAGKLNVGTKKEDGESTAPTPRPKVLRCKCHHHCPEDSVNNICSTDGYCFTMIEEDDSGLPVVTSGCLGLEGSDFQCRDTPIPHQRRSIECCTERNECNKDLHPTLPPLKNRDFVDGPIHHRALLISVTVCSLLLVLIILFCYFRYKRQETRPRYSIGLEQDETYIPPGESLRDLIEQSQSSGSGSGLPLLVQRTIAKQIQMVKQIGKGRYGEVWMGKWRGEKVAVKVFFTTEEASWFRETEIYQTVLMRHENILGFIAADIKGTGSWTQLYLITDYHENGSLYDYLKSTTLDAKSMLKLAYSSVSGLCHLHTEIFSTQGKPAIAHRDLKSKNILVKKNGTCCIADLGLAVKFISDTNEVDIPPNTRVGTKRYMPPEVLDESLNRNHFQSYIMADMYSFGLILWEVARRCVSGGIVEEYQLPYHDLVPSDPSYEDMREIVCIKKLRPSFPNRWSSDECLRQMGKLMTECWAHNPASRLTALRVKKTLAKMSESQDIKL
T2 sequence (O94804 whole entry): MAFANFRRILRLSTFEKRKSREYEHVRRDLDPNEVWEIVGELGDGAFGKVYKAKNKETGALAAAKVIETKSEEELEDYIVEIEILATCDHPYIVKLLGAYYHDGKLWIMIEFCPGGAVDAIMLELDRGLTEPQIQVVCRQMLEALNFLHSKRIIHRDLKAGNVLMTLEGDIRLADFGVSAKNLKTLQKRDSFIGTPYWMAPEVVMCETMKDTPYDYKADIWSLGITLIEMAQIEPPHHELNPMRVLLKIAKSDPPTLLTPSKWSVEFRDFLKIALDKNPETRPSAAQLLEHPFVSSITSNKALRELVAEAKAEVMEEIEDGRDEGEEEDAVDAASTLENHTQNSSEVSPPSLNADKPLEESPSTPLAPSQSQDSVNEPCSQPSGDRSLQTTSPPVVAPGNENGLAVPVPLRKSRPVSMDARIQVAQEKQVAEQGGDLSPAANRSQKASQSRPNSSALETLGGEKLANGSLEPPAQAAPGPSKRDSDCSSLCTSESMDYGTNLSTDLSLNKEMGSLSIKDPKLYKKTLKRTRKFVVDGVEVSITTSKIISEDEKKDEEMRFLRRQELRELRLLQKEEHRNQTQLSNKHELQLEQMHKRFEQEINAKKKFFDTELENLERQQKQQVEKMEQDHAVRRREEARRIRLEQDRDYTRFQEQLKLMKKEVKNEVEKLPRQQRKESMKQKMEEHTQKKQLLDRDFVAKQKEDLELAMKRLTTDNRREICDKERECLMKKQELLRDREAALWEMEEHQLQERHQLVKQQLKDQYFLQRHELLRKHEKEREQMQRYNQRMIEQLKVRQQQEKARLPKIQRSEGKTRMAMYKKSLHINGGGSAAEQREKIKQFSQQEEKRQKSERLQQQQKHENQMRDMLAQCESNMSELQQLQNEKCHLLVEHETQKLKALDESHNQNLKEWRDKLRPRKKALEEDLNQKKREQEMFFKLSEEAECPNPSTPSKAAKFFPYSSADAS
TBK1, sequence (Q9UHD2 whole entry): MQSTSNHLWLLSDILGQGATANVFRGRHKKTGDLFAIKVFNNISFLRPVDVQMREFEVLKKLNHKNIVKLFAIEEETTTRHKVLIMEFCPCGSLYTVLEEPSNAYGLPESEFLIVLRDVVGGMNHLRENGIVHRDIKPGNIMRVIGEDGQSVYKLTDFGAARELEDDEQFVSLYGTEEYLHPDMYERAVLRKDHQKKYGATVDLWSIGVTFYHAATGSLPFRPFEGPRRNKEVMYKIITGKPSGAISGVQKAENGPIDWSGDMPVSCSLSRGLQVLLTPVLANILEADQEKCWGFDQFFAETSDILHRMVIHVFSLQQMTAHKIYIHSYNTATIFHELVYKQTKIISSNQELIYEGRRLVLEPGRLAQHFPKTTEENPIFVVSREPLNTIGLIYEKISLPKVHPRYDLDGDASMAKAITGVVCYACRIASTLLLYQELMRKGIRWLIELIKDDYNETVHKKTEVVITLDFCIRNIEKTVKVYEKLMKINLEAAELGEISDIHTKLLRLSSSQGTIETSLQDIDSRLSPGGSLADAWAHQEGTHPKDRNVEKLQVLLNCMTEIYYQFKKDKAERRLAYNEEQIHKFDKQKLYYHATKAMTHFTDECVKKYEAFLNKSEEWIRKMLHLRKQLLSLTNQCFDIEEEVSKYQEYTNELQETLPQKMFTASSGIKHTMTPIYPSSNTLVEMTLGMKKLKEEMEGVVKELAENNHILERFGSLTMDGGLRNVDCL
T9 sequence (P45983 whole entry): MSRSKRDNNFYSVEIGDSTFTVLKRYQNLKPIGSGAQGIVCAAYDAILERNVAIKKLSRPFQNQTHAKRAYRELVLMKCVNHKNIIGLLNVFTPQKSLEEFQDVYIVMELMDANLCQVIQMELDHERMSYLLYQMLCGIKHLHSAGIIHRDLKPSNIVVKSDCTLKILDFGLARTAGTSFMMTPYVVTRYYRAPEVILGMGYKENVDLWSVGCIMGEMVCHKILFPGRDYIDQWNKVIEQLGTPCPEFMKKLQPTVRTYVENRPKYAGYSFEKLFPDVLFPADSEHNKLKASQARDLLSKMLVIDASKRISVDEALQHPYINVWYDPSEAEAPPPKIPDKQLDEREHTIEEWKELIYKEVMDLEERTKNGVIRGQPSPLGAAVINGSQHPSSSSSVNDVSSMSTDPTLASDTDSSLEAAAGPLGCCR

In general, inhibition refers to the drop in the measured response relative to a control, in per cent. `CNS(=O)(=O)c1ccc(N(C)C)c(Nc2nc(C)nc3cc(OC)c(OC)cc23)c1` [compound 15, 3-((6,7-dimethoxy-2-methylquinazolin-4-yl)amino)-4-(dimethylamino)-N-methylbenzenesulfonamide]: the inhibition at 1 µM is 0% in assay [1]; 16% in assay [2]; 0% in assay [3]; 7% in assay [4]; 18% in assay [5]; 11% in assay [6]. Also, the inhibition at 1 µM stood at 18% in assay [7]; 0% in [8]; 0% in assay [9]; 0% in [10]; 3% in [11]; 31% in assay [12]. Also, the inhibition at 1 µM in assay [13] was found to be 22%; in assay [14], 2%; in [15], 24%; in [16], 4%; in assay [17] it was 0%; in assay [18], 2%. The inhibition at 1 µM came to 3% in [19]; 14% in assay [20]; 0% in assay [21]; 1% in [22]; 0% in assay [23]; 14% in assay [24].
